Data from patent EP3459551A1, “USE OF ARSENIC TRIOXIDE IN THE PREVENTION OR TREATMENT OF DISEASES ASSOCIATED WITH TYPE I […] ACTIVATION” (Medsenic, priority 2017, dated 2019).

Assays:
[1] = test system: naïve CD4+ T cells; test: pDC capacity to polarize naïve CD4+ T cells (intracellular staining and ELISA of MLR supernatants); assay type: cell-based, human; details: pDCs previously treated with ATO
Experimental: (§1) pDCs were isolated from fresh peripheral blood mononuclear cells (PBMCs) by magnetic selection. Cell viability, phenotype and intracellular cytokine analyses were performed with flow cytometry. ELISA was used to analyze the cytokine concentration in supernatants.
In addition, the effect of ATO treatment on pDC capacity to polarize naïve CD4+ T cells was assessed.

[2] = test system: human pDCs; test: Viability of human pDCs (Fixable Viability Dye, flow cytometry); assay type: cell-based; details: 24h of culture
Experimental: as §1
First, the effect of ATO on the viability of human pDCs was investigated. […] (% of living pDCs: 56.36±6.44% with 0µM vs 32.02±7.12% with 1µM of ATO, p=0.039)

[3] = test system: pDCs after TLR9 activation; test: Cytokine and chemokine secretion by pDCs after TLR9 activation (ELISA of supernatants); assay type: cell-based, human; details: 0.5µM of ATO, 24h, n=4
Experimental: as §1
Then, the effect of low dose ATO (corresponding to a non-lethal, therapeutic dose) on cytokine and chemokine secretion by pDCs after TLR9 activation was studied. ELISA test of supernatants of sorted pDCs cultured with ATO for 24h were studied (n=4).

[4] = test system: activated pDCs; test: Phenotype of activated pDCs (flow cytometry of maturation markers); assay type: cell-based, human
Experimental: as §1
Given the above results, it was addressed whether activated pDCs phenotype could be similarly impacted by ATO treatment.

[5] = test system: CD4+ naïve T cells co-cultured with ATO-treated activated pDCs; test: Mixed lymphocyte reaction (MLR) of pDCs and CD4+ naïve T cells: T cell proliferation; assay type: cell-based, human; details: pDCs treated with 0.5µM of ATO, n=4; 0µM control 44.97±2.53%
Experimental: as §1
In order to evaluate whether ATO can influence the capability of pDCs to activate T cells, mixed lymphocyte reaction (MLR) of pDCs and CD4+ naïve T cells were performed.

[6] = 24h culture with non-lethal doses of ATO

arsenic trioxide [ATO]
IL-10 concentration in the supernatants of MLR ([1]; ELISA): no change
IL-17, IL-22 concentrations in the supernatants of MLR ([1]; ELISA): significant decrease
IL-22 positive cells in T cells ([1]; intracellular staining, untreated 11.67%): 7.22%
IFN-γ positive cells in T cells ([1]; intracellular staining, untreated 41.13%): 29.09%
TNF-α positive cells in T cells ([1]; intracellular staining, untreated 47.10%): 35.40%
% of living pDCs ([2]; 1µM of ATO, 0µM control 56.36±6.44%, p=0.039): 32.02±7.12%
ATO concentration that significantly decreased viability of both non-activated and activated pDCs [2]: ≥ 1 µM
IL-6 secretion ([3]; 0µM control 2.31 ±0.39ng/ml, p=0.029): 1.66 ± 0.32 ng/mL
TNF-α secretion ([3]; 0µM control 6.23±0.92ng/ml, p=0.005): 3.99 ± 0.79 ng/mL
CXCL10 secretion ([3]; 0µM control 13.06±0.98ng/ml, p=0.036): 9.44 ± 0.97 ng/mL
IFN-α secretion ([3]; 0µM control 53.24±6.61ng/ml, p=0.004): 25.81 ± 7.70 ng/mL
PD-L1+ pDCs ([4]; 0.5µM of ATO, 24h, n=4, 0µM control 61.44±2.37%, p=0.005): 73.27 ±3.72%
% of CD86+ and CCR7+ pDCs [4, 6]: significant decrease
relative fluorescence intensity (RFI) of CD80, CD86, and HLA-DR expressions [4, 6]: significant decrease
RFI for PD-L1 expression ([4]; 24h culture with non-lethal doses of ATO, p=0.09): increase
% of proliferating T cells [5]: 37.98±2.11%
